Measurements: patent publication US8178497B2, “Method of treating HIV in drug resistant non plasma viral reservoirs with monomeric DAPTA” (Rapid Pharmaceuticals AG, priority 2007, dated 2012)
Like-named read-outs stand apart in the source and are kept apart here.

How the values were obtained:
CCR5 [1] = biological target: T1, CCR5 (Homo sapiens, UniProt P51681); assay: CCR5 expression on SK-N-SH neuronal cells, 2D7 mAb staining; format: cell-based; parameters: CCR5 expression in these differentiated cells is limited and further reduced in the presence of DAPTA; endogenous in cells; host or cells: SK-N-SH (differentiated with retinoic acid)
From the text: To assess CCR5 expression on surface of neuronal cell lines, SK-N-SH were stained with 2D7 mAb in presence or in absence of DAPTA (at different doses) and TAK-779. SK-N-SH line has the potential of differentiating to neural cells in the presence of retinoic acid, and it has been used as a model of primary neurons.

[2] = test system: SK-N-SH cells exposed to R5 HIV-1 strain BaL; assay: apoptosis of differentiated SK-N-SH cells exposed to HIV-1 BaL, FACS; format: cell-based; conditions: for apoptosis, share of SK-N-SH cells: day 5, 60% with HIV-1BaL alone
From the text: Finally, we exposed differentiated SK-N-SH cells to the R5 HIV-1 strain BaL, in the presence or absence of monomeric DAPTA, and assessed neuronal apoptosis. […] To compare the anti-apoptotic effect of monomeric DAPTA with other CCR5-binding molecules, we also tested the CCR5 antagonist TAK-779.

[3] = aggregation of peptide in solution; format: physicochemical
From the text: These marginal clinical benefits were inexplicable in the context of the many successful in vitro studies and an explanation was sought. […] Therefore reduction to practice required that the non-obvious formation of multimers must be remedied for considerations of both patient safety and drug efficacy.

HIV-1 = conditions: 18 hours postinfection, vs not-treated cells
Procedure: Eighteen hours postinfection, genomic DNA was extracted and two-fold dilution of cell equivalents (range 1×10^6-1.25×10^5) were amplified in an inverse/nested PCR specific for a conserved gag region of the viral genome. Semi-quantitative analyses of HIV-1 DNA in M/M were performed by comparison of DNA amplification products from infected cells, standardized by PCR for β-actin, to standards of amplified U1 DNA copies and cell numbers. The UN-SCAN IT-gel software (Silk Scientific Inc.) was used to determine band densities (FIG. 3A).

[4] = test system: CCR5-using HIV-1 strain, 81A; assay: p24 antigen production in HIV-infected M/M (CCR5-using strain); format: cell-based
Procedure: (§1) Viral replication and production in HIV-infected M/M treated with DAPTA was assessed 14 and 21 days after infection for p24 antigen production.

HIV [5] = conditions: frozen stored plasma samples; p=.037; cited from earlier work
HIV [6] = conditions: doses as high as 10^−7 M; cited from earlier work
HIV [7] = conditions: main endpoint of the small trial; cited from earlier work
CCR5 [8] = biological target: T1, CCR5; assay: competition between CCR5-FITC antibody and DAPTA in M/M, flow cytometry; format: cell-based; parameters: endogenous in cells; host or cells: human primary monocyte/macrophages (M/M)
From the text: To confirm that monomeric DAPTA binding is specific for CCR5, a competition experiment between CCR5-FITC antibody and DAPTA in M/M was done. […] Treatment with monomeric DAPTA reduced CCR % expression to 9% with 10^−12 M DAPTA, compared with 35% of mock-treated M/M (FIG. 2) (p≦0.001).

[9] = test system: CXCR4-using (X4) strains, HIV-1 IIIB; assay: p24 antigen production in HIV-infected M/M (CXCR4-using strain); format: cell-based; conditions: M/M infected by HIV-1 IIIB; data not shown
Procedure: as §1

T1 sequence (P51681 whole entry): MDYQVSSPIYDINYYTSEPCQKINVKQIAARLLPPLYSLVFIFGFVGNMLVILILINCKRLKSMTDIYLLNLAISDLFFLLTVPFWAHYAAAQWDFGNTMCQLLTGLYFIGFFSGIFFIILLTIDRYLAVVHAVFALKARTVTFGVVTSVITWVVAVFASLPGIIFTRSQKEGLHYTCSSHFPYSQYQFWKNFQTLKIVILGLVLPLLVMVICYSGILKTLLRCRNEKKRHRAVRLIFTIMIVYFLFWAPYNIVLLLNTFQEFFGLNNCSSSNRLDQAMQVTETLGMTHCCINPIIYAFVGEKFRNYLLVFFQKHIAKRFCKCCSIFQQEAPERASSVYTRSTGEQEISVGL

| inhibition of CCR5 expression (CCR5 [1]; 1.8×10^−6 M) | Molecule | inhibition of apoptosis ([2]; 1.8×10^−6 M, vs cells not treated) [%] | aggregation in solution [3] | decline of HIV-1 DNA per 2.5×10^5 cells (HIV-1; 10^−7 M) [%] | decline of HIV-1 DNA per 2.5×10^5 cells (HIV-1; 10^−9 M) [%] | reduction of p24 gag antigen production of control M/M cultures ([4]; HIV-1 81A, doses as low as 10^−14 M, 14 and 21 days after infection) [%] | effective dose lower than described in earlier reports (enhanced in vitro potency) ([4]; monomeric formulation vs earlier reports) | reduction in viral load (HIV [5]) [log 10] | antiviral effects (Sodroski) (HIV [6]) | plasma viral load (HIV [7]) | inhibition of CCR5 expression (CCR5 [1]; 10^−12M, vs unexposed SK-N-SH) [%] | inhibition of CCR5 expression (CCR5 [1]; 10^−13M, vs unexposed SK-N-SH) [%] | inhibition of CCR5-binding, maximum (CCR5 [8]; 10^−12 M) [%] | CCR5 expression (CCR5+ M/M) (CCR5 [8]; 10^−12 M, mock-treated 35%) [%] | CCR5+ positive M/M (CCR5 [8]; DAPTA treated M/M, mock-treated 35%) [%] | inhibition of CCR5-binding (CCR5 [8]; overall, several DAPTA doses) | effect on HIV-1 p24 antigen production [9] | apoptosis, share of SK-N-SH cells ([2]; 10^−3M) [%] | apoptosis, share of SK-N-SH cells ([2]; 10^−12M) [%] |
| --- | --- | --- | --- | --- | --- | --- | --- | --- | --- | --- | --- | --- | --- | --- | --- | --- | --- | --- | --- |
| about 61% | Cc1ccc(-c2ccc3c(c2)C=C(C(=O)Nc2ccc(C[N+](C)(C)C4CCOCC4)cc2)CCC3)cc1.[Cl-] [TAK-779, reference compound] | 30 |  |  |  |  |  |  |  |  |  |  |  |  |  |  |  |  |  |
|  | Dala1-peptide T-amide [DAPTA] |  | quickly formed aggreagates in solution | 64 | 70 | ~80 | 100-100,000 fold | 0.54 | failed to find antiviral effects | failing to reduce plasma viral load | 72 | 68.5 | 73 | 9 | 20 | about 43% | no effect | 28 | 26 |
